Values joined by “and” are separate entries in the source; they are usually repeats but may differ in a detail not shown here. Equal values may be shown once. Toxic doses and inconclusive results are not listed. Rule as the data show it: active = T/C of 150% or more; inactive = T/C below 125%.
Test system: L1210 leukemia ip in BDF1 mice, survival T/C
Assay: NCI In Vivo Anticancer Drug Screen. Data for tumor model L1210 Leukemia (intraperitoneal) in B6D2F1 (BDF1) mice
Settings: endpoint: mean survival time, higher = longer survival
How it was run: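 Each compound was tested against a transplantable tumor grown in mice. The endpoint was survival, with treated animals benchmarked against vehicle controls as a simple ratio.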

Measured: T/C

Nc1nc(=S)c2ncn(C3OC(CO)C(O)C3O)c2[nH]1 (centres undefined)
inactive: dose: 0.09 mg/kg/injection, schedule: Q01DX Z (ip), vehicle: carboxymethylcellulose (CMC) 109 % of control | dose: 0.18 mg/kg/injection, schedule: Q01DX Z (ip), vehicle: carboxymethylcellulose (CMC) 124 % of control | dose: 0.25 mg/kg/injection, schedule: Q01DX015 (ip), vehicle: carboxymethylcellulose (CMC) 111 % of control and 115 % of control | dose: 0.25 mg/kg/injection, schedule: Q01DX015 (ip), vehicle: other 110 % of control | dose: 0.37 mg/kg/injection, schedule: Q01DX Z (ip), vehicle: carboxymethylcellulose (CMC) 121 % of control | dose: 0.4 mg/kg/injection, schedule: Q01DX009 (sc), vehicle: carboxymethylcellulose (CMC) 98 % of control | dose: 0.44 mg/kg/injection, schedule: Q01DX015 (ip), vehicle: carboxymethylcellulose (CMC) 113 % of control | dose: 0.5 mg/kg/injection, schedule: Q01DX015 (ip), vehicle: carboxymethylcellulose (CMC) 123 % of control | dose: 0.5 mg/kg/injection, schedule: Q01DX015 (ip), vehicle: other 123 % of control | dose: 0.62 mg/kg/injection, schedule: Q01DX015 (oral), vehicle: carboxymethylcellulose (CMC) 112 % of control | dose: 0.67 mg/kg/injection, schedule: Q01DX015 (ip), vehicle: carboxymethylcellulose (CMC) 113 % of control | dose: 0.8 mg/kg/injection, schedule: Q01DX009 (oral), vehicle: carboxymethylcellulose (CMC) 105 % of control | dose: 0.8 mg/kg/injection, schedule: Q01DX009 (sc), vehicle: carboxymethylcellulose (CMC) 102 % of control | dose: 1.0 mg/kg/injection, schedule: Q01DX015 (ip), vehicle: other 124 % of control | dose: 1.25 mg/kg/injection, schedule: Q01DX015 (oral), vehicle: carboxymethylcellulose (CMC) 124 % of control | dose: 1.8 mg/kg/injection, schedule: Q## X032 (ip), vehicle: carboxymethylcellulose (CMC) 120 % of control | dose: 2.16 mg/kg/injection, schedule: Q01DX Z (oral), vehicle: carboxymethylcellulose (CMC) 114 % of control | dose: 3.0 mg/kg/injection, schedule: Q01DX009 (ip), vehicle: saline 104 % of control | dose: 4.0 mg/kg/injection, schedule: Q01DX015 (ip), vehicle: carboxymethylcellulose (CMC) 120 % of control | dose: 4.0 mg/kg/injection, schedule: Q01DX Z (ip), vehicle: carboxymethylcellulose (CMC) 108 % of control | dose: 4.2 mg/kg/injection, schedule: Q## X032 (ip), vehicle: carboxymethylcellulose (CMC) 123 % of control | dose: 4.6 mg/kg/injection, schedule: Q01DX009 (ip), vehicle: saline 89 % of control | dose: 6.0 mg/kg/injection, schedule: Q01DX Z (ip), vehicle: carboxymethylcellulose (CMC) 122 % of control | dose: 6.25 mg/kg/injection, schedule: Q01DX009 (ip), vehicle: saline 118 % of control | dose: 7.0 mg/kg/injection, schedule: Q01DX Z (ip), vehicle: carboxymethylcellulose (CMC) 116 % of control | dose: 8.0 mg/kg/injection, schedule: Q01DX Z (ip), vehicle: carboxymethylcellulose (CMC) 110 % of control | dose: 9.0 mg/kg/injection, schedule: Q01DX Z (ip), vehicle: saline 105 % of control and 108 % of control | dose: 10.0 mg/kg/injection, schedule: Q01DX Z (oral), vehicle: carboxymethylcellulose (CMC) 119 % of control | dose: 12.5 mg/kg/injection, schedule: Q01DX009 (ip), vehicle: saline 108 % of control and 123 % of control | dose: 13.0 mg/kg/injection, schedule: Q01DX Z (ip), vehicle: saline 108 % of control | dose: 13.0 mg/kg/injection, schedule: Q02DX008 (ip), vehicle: carboxymethylcellulose (CMC) 119 % of control | dose: 16.0 mg/kg/injection, schedule: Q01DX009 (ip), vehicle: saline 104 % of control | dose: 16.8 mg/kg/injection, schedule: Q01DX Z (oral), vehicle: carboxymethylcellulose (CMC) 108 % of control | dose: 18.8 mg/kg/injection, schedule: Q01DX009 (ip), vehicle: saline 119 % of control | dose: 18.8 mg/kg/injection, schedule: Q01DX Z (ip), vehicle: saline 103 % of control | dose: 20.0 mg/kg/injection, schedule: Q01DX Z (ip), vehicle: saline 109 % of control | dose: 20.0 mg/kg/injection, schedule: Q01DX Z (oral), vehicle: carboxymethylcellulose (CMC) 122 % of control | dose: 25.0 mg/kg/injection, schedule: Q01DX005 (ip), vehicle: saline 94 % of control and 111 % of control and 117 % of control | dose: 25.0 mg/kg/injection, schedule: Q01DX009 (ip), vehicle: saline 100 % of control and 120 % of control and 94 % of control | dose: 30.0 mg/kg/injection, schedule: Q01DX Z (ip), vehicle: saline 93 % of control | dose: 32.0 mg/kg/injection, schedule: Q## X032 (ip), vehicle: carboxymethylcellulose (CMC) 119 % of control | dose: 36.0 mg/kg/injection, schedule: Q## X016 (ip), vehicle: carboxymethylcellulose (CMC) 122 % of control | dose: 37.5 mg/kg/injection, schedule: Q01DX009 (ip), vehicle: saline 108 % of control | dose: 37.5 mg/kg/injection, schedule: Q01DX010 (ip), vehicle: saline 97 % of control | dose: 40.0 mg/kg/injection, schedule: Q01DX Z (oral), vehicle: carboxymethylcellulose (CMC) 101 % of control | dose: 50.0 mg/kg/injection, schedule: Q01DX001 (ip), vehicle: saline 96 % of control | dose: 50.0 mg/kg/injection, schedule: Q01DX005 (ip), vehicle: saline 111 % of control | dose: 75.0 mg/kg/injection, schedule: Q01DX009 (ip), vehicle: saline 96 % of control | dose: 100.0 mg/kg/injection, schedule: Q01DX001 (ip), vehicle: saline 102 % of control | dose: 100.0 mg/kg/injection, schedule: Q01DX009 (ip), vehicle: saline 104 % of control | dose: 180.0 mg/kg/injection, schedule: Q## X002 (ip), vehicle: carboxymethylcellulose (CMC) 109 % of control | dose: 200.0 mg/kg/injection, schedule: Q01DX001 (ip), vehicle: saline 98 % of control | dose: 200.0 mg/kg/injection, schedule: Q01DX005 (ip), vehicle: saline 120 % of control and 106 % of control | dose: 200.0 mg/kg/injection, schedule: Q01DX009 (ip), vehicle: saline 105 % of control | dose: 225.0 mg/kg/injection, schedule: Q## X004 (ip), vehicle: carboxymethylcellulose (CMC) 119 % of control | dose: 270.0 mg/kg/injection, schedule: Q01DX001 (ip), vehicle: carboxymethylcellulose (CMC) 124 % of control | dose: 360.0 mg/kg/injection, schedule: Q01DX001 (sc), vehicle: carboxymethylcellulose (CMC) 95 % of control | dose: 360.0 mg/kg/injection, schedule: Q## X003 (oral), vehicle: carboxymethylcellulose (CMC) 110 % of control | dose: 400.0 mg/kg/injection, schedule: Q01DX001 (ip), vehicle: carboxymethylcellulose (CMC) 103 % of control | dose: 400.0 mg/kg/injection, schedule: Q01DX009 (ip), vehicle: saline 94 % of control | dose: 720.0 mg/kg/injection, schedule: Q01DX001 (oral), vehicle: carboxymethylcellulose (CMC) 109 % of control | dose: 84.0 micrograms/kg/injection, schedule: Q01DX Z (ip), vehicle: saline 121 % of control | dose: 120.0 micrograms/kg/injection, schedule: Q01DX Z (ip), vehicle: saline 115 % of control
active: dose: 0.5 mg/kg/injection, schedule: Q01DX Z (ip), vehicle: carboxymethylcellulose (CMC) 151 % of control | dose: 1.0 mg/kg/injection, schedule: Q01DX Z (ip), vehicle: carboxymethylcellulose (CMC) 157 % of control | dose: 1.56 mg/kg/injection, schedule: Q01DX009 (ip), vehicle: saline 152 % of control and 158 % of control | dose: 2.16 mg/kg/injection, schedule: Q01DX Z (ip), vehicle: carboxymethylcellulose (CMC) 152 % of control | dose: 2.7 mg/kg/injection, schedule: Q02DX008 (ip), vehicle: carboxymethylcellulose (CMC) 152 % of control | dose: 3.0 mg/kg/injection, schedule: Q01DX Z (ip), vehicle: carboxymethylcellulose (CMC) 152 % of control | dose: 4.0 mg/kg/injection, schedule: Q02DX008 (ip), vehicle: carboxymethylcellulose (CMC) 153 % of control | dose: 5.5 mg/kg/injection, schedule: Q## X003 (ip), vehicle: carboxymethylcellulose (CMC) 156 % of control | dose: 5.8 mg/kg/injection, schedule: Q02DX008 (ip), vehicle: carboxymethylcellulose (CMC) 156 % of control | dose: 6.0 mg/kg/injection, schedule: Q01DX Z (oral), vehicle: carboxymethylcellulose (CMC) 150 % of control | dose: 6.4 mg/kg/injection, schedule: Q## X032 (ip), vehicle: carboxymethylcellulose (CMC) 154 % of control | dose: 8.8 mg/kg/injection, schedule: Q02DX008 (ip), vehicle: carboxymethylcellulose (CMC) 150 % of control | dose: 10.0 mg/kg/injection, schedule: Q## X004 (ip), vehicle: carboxymethylcellulose (CMC) 158 % of control | dose: 14.0 mg/kg/injection, schedule: Q## X032 (ip), vehicle: carboxymethylcellulose (CMC) 155 % of control | dose: 22.0 mg/kg/injection, schedule: Q## X032 (ip), vehicle: carboxymethylcellulose (CMC) 155 % of control | dose: 22.5 mg/kg/injection, schedule: Q01DX001 (oral), vehicle: carboxymethylcellulose (CMC) 154 % of control | dose: 45.0 mg/kg/injection, schedule: Q01DX001 (ip), vehicle: carboxymethylcellulose (CMC) 155 % of control | dose: 45.0 mg/kg/injection, schedule: Q02DX008 (ip), vehicle: carboxymethylcellulose (CMC) 157 % of control | dose: 67.0 mg/kg/injection, schedule: Q## X004 (ip), vehicle: carboxymethylcellulose (CMC) 151 % of control | dose: 90.0 mg/kg/injection, schedule: Q01DX001 (sc), vehicle: carboxymethylcellulose (CMC) 156 % of control | dose: 100.0 mg/kg/injection, schedule: Q01DX001 (ip), vehicle: carboxymethylcellulose (CMC) 155 % of control | dose: 144.0 mg/kg/injection, schedule: Q01DX001 (ip), vehicle: carboxymethylcellulose (CMC) 158 % of control | dose: 150.0 mg/kg/injection, schedule: Q01DX001 (ip), vehicle: carboxymethylcellulose (CMC) 157 % of control | dose: 180.0 mg/kg/injection, schedule: Q01DX001 (ip), vehicle: carboxymethylcellulose (CMC) 154 % of control | dose: 225.0 mg/kg/injection, schedule: Q01DX001 (ip), vehicle: carboxymethylcellulose (CMC) 150 % of control | dose: 290.0 micrograms/kg/injection, schedule: Q01DX Z (ip), vehicle: saline 151 % of control
